In test [1] the test system is T47D cells. The test is described as follows: Cellular growth inhibition assay for T47D cells, CellTiter-Glo. Type of test: cell-based, human. As to conditions: Homo sapiens, T47D, 72 h, 72 hours treatment, CellTiter-Glo 2.0 cell viability. In short, it runs like this: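 Cells are plated at 3000/well and allowed 24 h before treatment. Test compound in medium containing 0.5% DMSO is then added, with DMSO-only wells as negative control, and plates are incubated 72 h at 37 °C. ATP luminescence (CellTiter-Glo 2.0) is then fitted to four parameters to derive GI50.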
On the technique in general: Cellular ATP, detected with luciferase, serves as a proxy for viable cell number.

The subject of test [2] is T-Rex 293 cell line SC3 cells having increased expression of androgen receptor protein due to exposure to doxycycline. The experiment in a line: Cellular growth inhibition, T-Rex 293 SC3 cells with doxycycline (androgen receptor induced), CellTiter-Glo. The format is cell-based. As to conditions: 72 h, T-Rex 293 SC3 cells with 10 ng/mL doxycycline (increased androgen receptor expression). Summed up: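 GI50 came from a four-parameter fit of CellTiter-Glo 2.0 luminescence after 72 h compound exposure (0.5% DMSO, 37 °C), dosing 24 h post-seeding. SC3 clone cells (2500/well), transfected with wild-type androgen receptor, grew in charcoal-stripped serum medium lacking phenol red, induced with 10 ng/mL doxycycline or left uninduced.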

By GI50 is commonly meant the concentration at which growth is held to half of that of the control. Lower therefore signals greater sensitivity of the cells. Take `Cc1sc2c(c1C)C(c1ccc(CCCOC3CCN(c4ncc(C(=O)N[C@H]5C(C)(C)[C@H](Oc6ccc(C#N)c(Cl)c6)C5(C)C)cn4)CC3)cc1)=N[C@@H](CC(=O)NC1CC1)c1nnc(C)n1-2` [Compound I-102]: the GI50 in test [1] and in test [2] was less than 500 nM each time.
For `CCNC(=O)C[C@@H]1N=C(c2ccc(CCCN(C)c3ncc(C(=O)N[C@H]4C(C)(C)[C@H](Oc5ccc(C#N)c(Cl)c5)C4(C)C)cn3)cc2)c2c(sc(C)c2C)-n2c(C)nnc21` [Compound I-104], the GI50 in test [1] and in test [2] was less than 500 nM throughout.
As for `CCNC(=O)C[C@@H]1N=C(c2ccc(N3CCN(CC4CCN(c5ncc(C(=O)N[C@H]6C(C)(C)[C@H](Oc7ccc(C#N)c(Cl)c7)C6(C)C)cn5)CC4)CC3)cc2)c2c(sc(C)c2C)-n2c(C)nnc21` [Compound I-105, N-[3-(3-chloro-4-cyano-phenoxy)-2,2,4,4-tetramethyl-cyclobutyl]-2-[4-[[4-[4-[(9S)-9-[2-(ethylamino)-2-oxo-ethyl]-4,5,13-trimethyl-3-thia-1,8,11,12-tetrazatricyclo[8.3.0.02,6]trideca-2(6),4,7,10,12-pentaen-7-yl]phenyl]piperazin-1-yl]methyl]-1-piperidyl]pyrimidine-5-carboxamide], the GI50 in test [1] and in test [2] was less than 500 nM throughout.
Take `CCNC(=O)C[C@@H]1N=C(c2ccc(N(C)CC3CN(c4ncc(C(=O)N[C@H]5C(C)(C)[C@H](Oc6ccc(C#N)c(Cl)c6)C5(C)C)cn4)C3)cc2)c2c(sc(C)c2C)-n2c(C)nnc21` [Compound I-107]: the GI50 in test [1] was 500 to 1500 nM; in test [2], less than 500 nM.
In the case of `CCNC(=O)C[C@@H]1N=C(c2ccc(N(C)CCN3CCN(c4ncc(C(=O)N[C@H]5C(C)(C)[C@H](Oc6ccc(C#N)c(Cl)c6)C5(C)C)cn4)CC3)cc2)c2c(sc(C)c2C)-n2c(C)nnc21` [Compound I-108], the GI50 is 500 to 1500 nM in test [1] and less than 500 nM in test [2].
Take `CCNC(=O)C[C@@H]1N=C(c2ccc(N(C)C3CN(CC4CCN(c5ncc(C(=O)N[C@H]6C(C)(C)[C@H](Oc7ccc(C#N)c(Cl)c7)C6(C)C)cn5)CC4)C3)cc2)c2c(sc(C)c2C)-n2c(C)nnc21` [Compound I-119]: the GI50 in test [1] and in test [2] was less than 500 nM each time.
Turning to `CCNC(=O)C[C@@H]1N=C(c2ccc(N3CC(N(C)C4CN(c5ncc(C(=O)N[C@H]6C(C)(C)[C@H](Oc7ccc(C#N)c(Cl)c7)C6(C)C)cn5)C4)C3)cc2)c2c(sc(C)c2C)-n2c(C)nnc21` [Compound I-121], the GI50 in test [1] and in test [2] was less than 500 nM in each case.
For `CCNC(=O)C[C@@H]1N=C(c2ccc(N3CCC(N(C)C4CN(c5ncc(C(=O)N[C@H]6C(C)(C)[C@H](Oc7ccc(C#N)c(Cl)c7)C6(C)C)cn5)C4)CC3)cc2)c2c(sc(C)c2C)-n2c(C)nnc21` [Compound I-123], the GI50 in test [1] and in test [2] was less than 500 nM each time.
As for `CCNC(=O)C[C@@H]1N=C(c2ccc(N3CCC(CN4CC(Oc5ncc(C(=O)N[C@H]6C(C)(C)[C@H](Oc7ccc(C#N)c(Cl)c7)C6(C)C)cn5)C4)CC3)cc2)c2c(sc(C)c2C)-n2c(C)nnc21` [Compound I-124], the GI50 in test [1] was 500 to 1500 nM; in test [2] it was less than 500 nM.
Regarding `CCNC(=O)C[C@@H]1N=C(c2ccc(N(C3CC3)C3CN(CC4CCN(c5ncc(C(=O)N[C@H]6C(C)(C)[C@H](Oc7ccc(C#N)c(Cl)c7)C6(C)C)cn5)CC4)C3)cc2)c2c(sc(C)c2C)-n2c(C)nnc21` [Compound I-129], the results for the GI50 in test [1] and in test [2] were 500 to 1500 nM and less than 500 nM, respectively.
On the same counts, the results for `CCNC(=O)C[C@@H]1N=C(c2ccc(N(C)C3CC(OC4CCN(c5ncc(C(=O)N[C@H]6C(C)(C)[C@H](Oc7ccc(C#N)c(Cl)c7)C6(C)C)cn5)CC4)C3)cc2)c2c(sc(C)c2C)-n2c(C)nnc21` (stereo partly shown) [Compound I-130] are 500 to 1500 nM and less than 500 nM.
The matching figures for `Cc1sc2c(c1C)C(c1ccc(CCCOC3CCN(c4ncc(C(=O)N[C@H]5C(C)(C)[C@H](Oc6ccc(C#N)c(Cl)c6)C5(C)C)cn4)CC3)cc1)=N[C@@H](Cc1ncco1)c1nnc(C)n1-2` [Compound I-131, N-[3-(3-chloro-4-cyano-phenoxy)-2,2,4,4-tetramethyl-cyclobutyl]-2-[4-[3-[4-[(9S)-4,5,13-trimethyl-9-(oxazol-2-ylmethyl)-3-thia-1,8,11,12-tetrazatricyclo[8.3.0.02,6]trideca-2(6),4,7,10,12-pentaen-7-yl]phenyl]propoxy]-1-piperidyl]pyrimidine-5-carboxamide]: less than 500 nM and less than 500 nM.
The matching figures for `Cc1sc2c(c1C)C(c1ccc(CC3CC(C4CCN(c5ncc(C(=O)N[C@H]6C(C)(C)[C@H](Oc7ccc(C#N)c(Cl)c7)C6(C)C)cn5)CC4)C3)cc1)=NC(Cc1ncco1)c1nnc(C)n1-2` (stereo partly shown) [Compound I-136]: less than 500 nM and less than 500 nM.
`Cc1sc2c(c1C)C(c1ccc(CC3CN(CC4CCN(c5ncc(C(=O)N[C@H]6C(C)(C)[C@H](Oc7ccc(C#N)c(Cl)c7)C6(C)C)cn5)CC4)C3)cc1)=N[C@@H](Cc1ncco1)c1nnc(C)n1-2` [Compound I-153]: the GI50 in test [1] and in test [2] was less than 500 nM each time.
With `Cc1sc2c(c1C)C(c1ccc(C[C@H]3C[C@@H]([C@@H]4CCCN(c5ncc(C(=O)N[C@H]6C(C)(C)[C@H](Oc7ccc(C#N)c(Cl)c7)C6(C)C)cn5)C4)C3)cc1)=N[C@@H](Cc1ncco1)c1nnc(C)n1-2` [Compound I-161], the GI50 in test [1] and in test [2] was less than 500 nM throughout.
In the case of `Cc1sc2c(c1C)C(c1ccc(OC3CC4(CCN(c5ncc(C(=O)N[C@H]6C(C)(C)[C@H](Oc7ccc(C#N)c(Cl)c7)C6(C)C)cn5)CC4)C3)cc1)=NC(Cc1ncco1)c1nnc(C)n1-2` (stereo partly shown) [Compound I-166], the figures for the GI50 in test [1] and in test [2] were 500 to 1500 nM and less than 500 nM, respectively.
Consider `Cc1sc2c(c1C)C(c1ccc(OC3CN(CC4CCN(c5ncc(C(=O)N[C@H]6C(C)(C)[C@H](Oc7ccc(C#N)c(Cl)c7)C6(C)C)cn5)CC4)C3)cc1)=N[C@H](Cc1ncco1)c1nnc(C)n1-2` [Compound I-169], for which the GI50 in test [1] and in test [2] was less than 500 nM in each case.
Regarding `Cc1sc2c(c1C)C(c1ccc(O[C@H]3CC[C@@]4(CCCN(c5ncc(C(=O)N[C@H]6C(C)(C)[C@H](Oc7ccc(C#N)c(Cl)c7)C6(C)C)cn5)C4)CC3)cc1)=N[C@@H](Cc1ncco1)c1nnc(C)n1-2` [Compound I-172], the GI50 in test [1] and in test [2] was less than 500 nM throughout.
For `Cc1sc2c(c1C)C(c1ccc(N3CC(C4CCN(c5ncc(C(=O)N[C@H]6C(C)(C)[C@H](Oc7ccc(C#N)c(Cl)c7)C6(C)C)cn5)CC4)C3)cc1)=NC(Cc1ncco1)c1nnc(C)n1-2` (stereo partly shown) [Compound I-209], the GI50 in test [1] and in test [2] was less than 500 nM each time.
With `COCC[C@@H]1N=C(c2ccc(CCCOC3CCN(c4ncc(C(=O)N[C@H]5C(C)(C)[C@H](Oc6ccc(C#N)c(Cl)c6)C5(C)C)cn4)CC3)cc2)c2c(sc(C)c2C)-n2c(C)nnc21` [Compound I-227, N-[3-(3-chloro-4-cyano-phenoxy)-2,2,4,4-tetramethyl-cyclobutyl]-2-[4-[3-[4-[(9S)-9-(2-methoxyethyl)-4,5,13-trimethyl-3-thia-1,8,11,12-tetrazatricyclo[8.3.0.02,6]trideca-2(6),4,7,10,12-pentaen-7-yl]phenyl]propoxy]-1-piperidyl]pyrimidine-5-carboxamide], the GI50 in test [1] was 500 to 1500 nM; in test [2], less than 500 nM.

Source of the values: patent publication US20260062422A1 (Halda Therapeutics OpCo, Inc., priority 2022, published 2026).
